Read-outs that look alike come from different tables or passages of the source.
What was measured:
Assay type in all cases: cell-based
SPL [1] = molecular target: T1, SPL (Mus musculus, UniProt Q8R0X7); assay: SPA using known SPL inhibitor: accumulation of 3H-dhS1P in IT-79MTNC3 cells; settings: for EC50: read-out: EC50, activity of inhibiting the SPL activity
T1 construct: IT-79MTNC3 cells which are a mouse thymic epithelial cell line can be appropriately selected using the expression of an SPL protein as an index; host or cells: IT-79MTNC3 (mouse thymic epithelial cell line)
T1 sequence (Q8R0X7 1-568): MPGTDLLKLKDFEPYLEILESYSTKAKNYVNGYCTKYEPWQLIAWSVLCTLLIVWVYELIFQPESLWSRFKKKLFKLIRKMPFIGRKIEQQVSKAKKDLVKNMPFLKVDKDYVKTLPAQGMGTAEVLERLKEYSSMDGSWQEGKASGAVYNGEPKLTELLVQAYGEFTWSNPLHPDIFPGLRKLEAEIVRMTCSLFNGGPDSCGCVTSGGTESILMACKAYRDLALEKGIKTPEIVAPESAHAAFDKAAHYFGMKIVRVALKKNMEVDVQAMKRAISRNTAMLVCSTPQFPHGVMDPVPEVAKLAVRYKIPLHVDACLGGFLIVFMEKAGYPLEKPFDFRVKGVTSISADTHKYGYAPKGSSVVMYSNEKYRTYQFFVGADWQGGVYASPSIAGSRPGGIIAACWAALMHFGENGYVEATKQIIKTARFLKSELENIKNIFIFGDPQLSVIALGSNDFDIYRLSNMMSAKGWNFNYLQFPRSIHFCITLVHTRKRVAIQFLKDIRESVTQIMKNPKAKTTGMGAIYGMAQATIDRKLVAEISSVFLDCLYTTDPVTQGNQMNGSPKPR
Method: A mouse thymic epithelial cell line (IT-79MTNC3 cells, The Cell Bank Division of Japan Health Sciences Foundation) was cultured using Dulbecco's Modified Eagle Medium (DMEM, Invitrogen) containing 10% fetal bovine serum (FBS) (DMEM-10% FBS) at 37° C. in the presence of 5% CO2. When the cells were used for transfection or assay, the cells were detached with 0.05% trypsin-EDTA (Invitrogen), followed by centrifugation, thereby collecting the cells. When the cells were treated with a compound or used for incorporating ^3H-dhSph, DMEM containing 0.1% bovine serum albumin (BSA, Sigma) (DMEM-0.1% BSA) or vitamin B6 group-depleted Dulbecco's Modified Eagle Medium (VB6-free DMEM, Cell Science & Technology Institute, Inc.) containing 0.1% BSA (VB6-free DMEM-0.1% BSA) was used.
In order to evaluate the activity of a test compound for accumulating ^3H-dhS1P, IT-79MTNC3 cells were suspended in DMEM-10% FBS containing 25 μM fumonisin B1, and seeded in a 96-well plate for cell culture at 1×10^4 cells/well, and then cultured at 37° C. in the presence of 5% CO2 for a whole day and night. On the next day, the culture supernatant was first removed, and then, 40 μL of DMEM-0.1% BSA (or VB6-free DMEM-0.1% BSA) containing a serially diluted test compound was added thereto, and the cells were cultured at 37° C. in the presence of 5% CO2 for 4.5 hours. Thereafter, 10 μL of DMEM-0.1% BSA (or VB6-free DMEM-0.1% BSA) containing 83 nM ^3H-dhSph and 5 μM dhSph was added thereto, and the cells were cultured at 37° C. in the presence of 5% CO2 for 30 minutes. After the culture supernatant was removed, 70 μL of a cell lysis buffer was added thereto, and the resulting mixture was left at room temperature for 2 hours. A 50 μL portion of the resulting cell lysate was mixed with SPA beads (obtained by being diluted to 8 times such that glycerol was contained at 50% in the final concentration), which were previously dispensed into a white 96-well plate at 20 μL/well. Then, the plate was covered with a transparent plate seal and left overnight at room temperature under shading. On the next day, the radioactivity thereof was measured using a microplate scintillation counter. In the case of using VB6-free DMEM, before the culture medium containing the test compound was added, washing was carried out twice with 150 μL of VB6-free DMEM-0.1% BSA, thereby preventing the carryover of the vitamin B6 group contained in DMEM used when seeding.

SPL [2] = molecular target: T1, SPL; assay: Measurement of intracellular S1P by LC-MS in IT-79MTNC3 cells
Method: In order to evaluate the activity of a test compound for accumulating S1P, IT-79MTNC3 cells were suspended in DMEM-10% FBS containing 25 μM fumonisin B1, and seeded in a 24-well plate for cell culture at 5×10^4 cells/well, and then cultured at 37° C. in the presence of 5% CO2 for a whole day and night. On the next day, the culture supernatant was first removed, and then, 450 μL of DMEM-0.1% BSA (or VB6-free DMEM-0.1% BSA) containing a serially diluted test compound was added thereto, and the cells were cultured at 37° C. in the presence of 5% CO2 for 4.5 hours. Thereafter, 50 μL of DMEM-0.1% BSA (or VB6-free DMEM-0.1% BSA) containing 10 μM Sph (Enzo Life Sciences) was added thereto, and the cells were cultured at 37° C. in the presence of 5% CO2 for 30 minutes. After the culture supernatant was removed, the cells were washed with PBS and collected. Then, 150 μL of a mixed solution of acetonitrile and 1 M hydrochloric acid (acetonitrile:hydrochloric acid=4:1) was added to the cells, and the resulting mixture was subjected to an ultrasonic treatment using a sonicator. The amount of S1P was measured by LC-MS by Mitsubishi Chemical Medience Corporation. In the case of using VB6-free DMEM, before the culture medium containing the test compound was added, washing was carried out twice with 600 μL of VB6-free DMEM-0.1% BSA, thereby preventing the carryover of the vitamin B6 group contained in DMEM used when seeding.

SPL [3] = molecular target: T1, SPL; assay: Measurement of SPL activity in lysate of cells treated with compound
Method: In order to prepare a lysate of cells treated with a test compound, IT-79MTNC3 cells were suspended in DMEM-10% FBS containing 25 μM fumonisin B1 and seeded in a 12-well plate for cell culture at 1×10^5 cells/well, and then cultured at 37° C. in the presence of 5% CO2 for a whole day and night. On the next day, the culture supernatant was first removed, and then, 500 μL of DMEM-0.1% BSA (or VB6-free DMEM-0.1% BSA) containing a serially diluted test compound was added thereto, and the cells were cultured at 37° C. in the presence of 5% CO2 for 4.5 hours. Thereafter, 55 μL of DMEM-0.1% BSA (or VB6-free DMEM-0.1% BSA) containing 10 μM dhSph was added thereto, and the cells were cultured at 37° C. in the presence of 5% CO2 for 30 minutes. After washing the IT-79MTNC3 cells with PBS, the cells were collected. Then, 150 μL of a homogenization buffer was added to the cells, and the resulting mixture was subjected to an ultrasonic treatment using a sonicator, followed by centrifugation at 4° C. for 3 minutes at 1,000 g, and the resulting supernatant was used as a cell lysate. The quantitative determination of protein by the Bradford method was carried out using a portion of the cell lysate. […]
In order to measure the SPL activity in the lysate prepared using the cells treated with the compound, the cell lysate was diluted to 1 mg protein/mL with a homogenization buffer, and the diluted solution was mixed with ^3H-dhS1P (3.4 nM) as a substrate and a reaction buffer (a 0.1 M potassium phosphate solution (pH-7.4), 25 mM NaF, 5 mM Na3VO4, 1 mM EDTA, 1 mM DTT, 0.1% Triton X-100, 2 μM cold dhS1P) to make the final volume 50 μL. […] A 30 μL portion of the resulting organic layer was taken and mixed with 5 mL of the liquid scintillator, and the radioactivity thereof was measured using a liquid scintillation counter. The obtained count was assumed to reflect the amount of degradation products by the SPL reaction, and the SPL activity of each sample was calculated as a ratio of that in the group without treatment with the compound.

[4] = in the presence of 100 nM pyridoxine

Row | effective concentration in SPA as compared with normal DMEM (SPL [1]; VB6-free DMEM, FIG. 5(1)) | EC50 (SPL [1]; [4]) [µM] | EC50 (SPL [1]; in the presence of 1 μM pyridoxine) [µM] | EC50 (SPL [1]; normal DMEM (containing about 20 μM pyridoxine)) [µM] | response by SPA (accumulation of 3H-dhS1P) (SPL [1]; normal conditions (DMEM), FIG. 4(1)) | inhibitory activity against the SPL activity (SPL [1]; in the presence 1 μM pyridoxine) | inhibitory activity against the SPL activity (SPL [1]; normal DMEM) | SMILES | activity on amount of intracellular S1P (SPL [2]; VB6-free DMEM, FIG. 5(2)) | activity on amount of intracellular S1P (SPL [2]; normal conditions (DMEM), FIG. 4(2)) | activity on SPL activity in the lysate (SPL [3]; VB6-free DMEM, FIG. 5(3)) | activity on SPL activity in the lysate (SPL [3]; normal conditions (DMEM), FIG. 4(3)) | activity in SPA (accumulation of 3H-dhS1P) (SPL [1]; VB6-free DMEM, FIG. 5(1))
1 | significantly decreased | 0.027 | 1.6 | 46 | concentration-dependent response | – | – | Cc1ncc(CO)c(C)c1O [DOP, 4-deoxypyridoxine] | exhibited their activity in substantially the same concentration range | detected in substantially the same concentration range | exhibited their activity in substantially the same concentration range | detected in substantially the same concentration range | –
2 | – | ~250 | – | – | – | could not be observed | could not be observed | CC(=O)c1nc(C(O)C(O)C(O)CO)c[nH]1 (stereo not drawn) [THI, 2-acetyl-4-tetrahydroxybutylimidazole] | exhibited their activity in substantially the same concentration range | – | exhibited their activity in substantially the same concentration range | – | concentration-dependent activity was detected

From patent publication US9200309B2, “Method for screening for S1P lyase inhibitors using cultured cells” (Daiichi Sankyo Company, Limited, priority 2010, dated 2015)
